{"source": "patent US10441576B2", "about": "“Substituted 1,2-dihydro-3H pyrrolo[1,2-c]imidazol-3 one antibacterials” (priority 2015, dated 2019)", "assay_type_in_all_cases": "cell-based", "key": {"[1]": {"tested_on": "wild-type E. coli A-1261", "assay": "MIC against E. coli A-1261 in the absence or presence of alkaline phosphatase or esterase", "description": "(§1) Minimal Inhibitory Concentrations (MICs; mg/L) were determined in cation-adjusted Mueller-Hinton Broth by a microdilution method following the description given in “Methods for Dilution Antimicrobial Susceptibility Tests for Bacteria that Grow Aerobically”, Approved standard, 7th ed., Clinical and Laboratory Standards Institute (CLSI) Document M7-A7, Wayne, Pa., USA (2006).\nAll Example compounds were tested against wild-type E. coli A-1261 in the absence of alkaline phosphatase or esterase, in the presence of an alkaline phosphatase and in the presence of an esterase. The corresponding antibacterial test results are given in Table 2 hereafter (MICs in mg/L)."}, "[2]": {"tested_on": "K. pneumoniae A-651", "assay": "Bacterial growth minimal inhibitory concentration (microdilution, cation-adjusted Mueller-Hinton Broth)", "conditions": "Klebsiella pneumoniae, A651; multiply resistant strain (in particular quinolone-resistant)", "description": "as §1\n(§2) All Reference Example compounds were tested against several Gram-negative bacteria. […] The corresponding antibacterial test results are given in Table 1 hereafter (MICs in mg/L)."}, "[3]": {"tested_on": "E. coli ATCC25922", "assay": "Bacterial growth minimal inhibitory concentration (microdilution, cation-adjusted Mueller-Hinton Broth)", "conditions": "Escherichia coli, quinolone-sensitive strain", "description": "as §1, §2"}, "[4]": {"tested_on": "P. aeruginosa ATCC27853", "assay": "Bacterial growth minimal inhibitory concentration (microdilution, cation-adjusted Mueller-Hinton Broth)", "conditions": "Pseudomonas aeruginosa, quinolone-sensitive strain", "description": "as §1, §2"}, "[5]": {"tested_on": "wild-type E. coli A-1261", "assay": "Bacterial growth minimal inhibitory concentration (microdilution, cation-adjusted Mueller-Hinton Broth)", "conditions": "Escherichia coli, quinolone-sensitive strain", "description": "as §1, §2"}, "[6]": {"conditions": "Escherichia coli; alkaline phosphatase 2 i.U./mL; read-out: MIC for E. coli A-1261 In the presence of an alkaline phosphatase (2 i.U./mL)"}, "[7]": {"conditions": "Escherichia coli; esterase 10 i.U./mL; read-out: MIC for E. coli A-1261 In the presence of an esterase (10 i.U./mL)"}, "[8]": {"conditions": "Escherichia coli; read-out: MIC for E. coli A-1261 In the absence of alkaline phosphatase or esterase"}, "[9]": {"conditions": "Escherichia coli, read-out: MIC for E. coli A-1261 In the absence of alkaline phosphatase or esterase"}, "[10]": {"conditions": "Escherichia coli, read-out: MIC for E. coli A-1261 In the presence of an alkaline phosphatase (2 i.U./mL)"}, "[11]": {"conditions": "Escherichia coli, read-out: MIC for E. coli A-1261 In the presence of an esterase (10 i.U./mL)"}}}
{"compound": "C[C@@](CCN1Cc2cc(C#CC#CC3(COC(=O)CN4CCOCC4)CC3)cn2C1=O)(C(=O)NO)S(C)(=O)=O", "note": "[Example 1, (R)-(1-((2-(4-(hydroxyamino)-3-methyl-3-(methylsulfonyl)-4-oxobutyl)-3-oxo-2,3-dihydro-1H-pyrrolo[1,2-c]imidazol-6-yl)buta-1,3-diyn-1-yl)cyclopropyl)methyl 2-morpholinoacetate]", "values": [{"measurement": "MIC", "setting": "[1]; [6]", "value": 1, "unit": "µg/mL"}, {"measurement": "MIC", "setting": "[1]; [7]", "value": 0.25, "unit": "µg/mL"}, {"measurement": "MIC", "setting": "[1]; [8]", "value": 2, "unit": "µg/mL"}]}
{"compound": "C[C@@](CCN1Cc2cc(C#CC#CC3(COC(=O)CCc4ccccc4OP(=O)(O)O)CC3)cn2C1=O)(C(=O)NO)S(C)(=O)=O", "note": "[Example 2, (R)-(1-((2-(4-(hydroxyamino)-3-methyl-3-(methylsulfonyl)-4-oxobutyl)-3-oxo-2,3-dihydro-1H-pyrrolo[1,2-c]imidazol-6-yl)buta-1,3-diyn-1-yl)cyclopropyl)methyl 3-(2-(phosphonooxy)phenyl)propanoate]", "values": [{"measurement": "MIC", "setting": "[1]; [9]", "value": 8, "unit": "µg/mL"}, {"measurement": "MIC", "setting": "[1]; [10]", "value": 1, "unit": "µg/mL"}, {"measurement": "MIC", "setting": "[1]; [11]", "value": 1, "unit": "µg/mL"}]}
{"compound": "C[C@@](CCN1Cc2cc(C#CC#CC3(CO)CC3)cn2C1=O)(C(=O)NOC(=O)CCc1ccccc1OP(=O)(O)O)S(C)(=O)=O", "note": "[Example 3, (R)-2-(3-((4-(6-((1-(hydroxymethyl)cyclopropyl)buta-1,3-diyn-1-yl)-3-oxo-1H-pyrrolo[1,2-c]imidazol-2(3H)-yl)-2-methyl-2-(methylsulfonyl)butanamido)oxy)-3-oxopropyl)phenyl dihydrogen phosphate]", "values": [{"measurement": "MIC", "setting": "[1]; [9]", "value": 8, "unit": "µg/mL"}, {"measurement": "MIC", "setting": "[1]; [10]", "value": 0.5, "unit": "µg/mL"}, {"measurement": "MIC", "setting": "[1]; [11]", "value": 8, "unit": "µg/mL"}]}
{"compound": "C[C@@](CCN1Cc2cc(C#CC#C[C@H]3C[C@@H]3COP(=O)(O)O)cn2C1=O)(C(=O)NO)S(C)(=O)=O", "note": "[Example 4, ((1S,2S)-2-((2-((R)-4-(hydroxyamino)-3-methyl-3-(methylsulfonyl)-4-oxobutyl)-3-oxo-2,3-dihydro-1H-pyrrolo[1,2-c]imidazol-6-yl)buta-1,3-diyn-1-yl)cyclopropyl)methyl dihydrogen phosphate]", "values": [{"measurement": "MIC", "setting": "[1]; [6]", "value": 0.25, "unit": "µg/mL"}, {"measurement": "MIC", "setting": "[1]; [7]", "value": "> 8", "unit": "µg/mL"}, {"measurement": "MIC", "setting": "[1]; [8]", "value": "> 8", "unit": "µg/mL"}]}
{"compound": "C[C@@](CCN1Cc2cc(C#CC#C[C@H]3C[C@@H]3COC(=O)CCc3ccccc3OP(=O)(O)O)cn2C1=O)(C(=O)NO)S(C)(=O)=O", "note": "[Example 5, ((1S,2S)-2-((2-((R)-4-(hydroxyamino)-3-methyl-3-(methylsulfonyl)-4-oxobutyl)-3-oxo-2,3-dihydro-1H-pyrrolo[1,2-c]imidazol-6-yl)buta-1,3-diyn-1-yl)cyclopropyl)methyl 3-(2-(phosphonooxy)phenyl)propanoate]", "values": [{"measurement": "MIC", "setting": "[1]; [9]", "value": 4, "unit": "µg/mL"}, {"measurement": "MIC", "setting": "[1]; [10]", "value": 0.25, "unit": "µg/mL"}, {"measurement": "MIC", "setting": "[1]; [11]", "value": 0.25, "unit": "µg/mL"}]}
{"compound": "C[C@@](CCN1Cc2cc(C#CC#C[C@H]3C[C@]3(F)COP(=O)(O)O)cn2C1=O)(C(=O)NO)S(C)(=O)=O", "note": "[Example 6, ((1R,2R)-1-fluoro-2-((2-((R)-4-(hydroxyamino)-3-methyl-3-(methylsulfonyl)-4-oxobutyl)-3-oxo-2,3-dihydro-1H-pyrrolo[1,2-c]imidazol-6-yl)buta-1,3-diyn-1-yl)cyclopropyl)methyl dihydrogen phosphate]", "values": [{"measurement": "MIC", "setting": "[1]; [6]", "value": 0.5, "unit": "µg/mL"}, {"measurement": "MIC", "setting": "[1]; [7]", "value": "> 8", "unit": "µg/mL"}, {"measurement": "MIC", "setting": "[1]; [8]", "value": "> 8", "unit": "µg/mL"}]}
{"compound": "C[C@@](CCN1Cc2cc(C#CC#CC3(CO)CC3)cn2C1=O)(C(=O)NOP(=O)(O)O)S(C)(=O)=O.N", "note": "[Example 7, mono-ammonium (R)-((4-(6-((1-(hydroxymethyl)cyclopropyl)buta-1,3-diyn-1-yl)-3-oxo-1H-pyrrolo[1,2-c]imidazol-2(3H)-yl)-2-methyl-2-(methylsulfonyl)butanamido)oxy)phosphonate]", "values": [{"measurement": "MIC", "setting": "[1]; [6]", "value": 1, "unit": "µg/mL"}, {"measurement": "MIC", "setting": "[1]; [7]", "value": 4, "unit": "µg/mL"}, {"measurement": "MIC", "setting": "[1]; [8]", "value": 4, "unit": "µg/mL"}]}
{"compound": "C[C@@](CCN1Cc2cc(C#CC#CC3(CO)CC3)cn2C1=O)(C(=O)NO)S(C)(=O)=O", "note": "[RE1, (R)—N-hydroxy-4-(6-((1-(hydroxymethyl)cyclopropyl)buta-1,3-diyn-1-yl)-3-oxo-1H-pyrrolo[1,2-c]imidazol-2(3H)-yl)-2-methyl-2-(methylsulfonyl)butanamide]", "values": [{"measurement": "MIC", "setting": "[2]", "value": 1, "unit": "µg/mL"}, {"measurement": "MIC", "setting": "[3]", "value": 0.5, "unit": "µg/mL"}, {"measurement": "MIC", "setting": "[4]", "value": 1, "unit": "µg/mL"}, {"measurement": "MIC", "setting": "[5]", "value": 0.25, "unit": "µg/mL"}]}
{"compound": "C[C@@](CCN1Cc2cc(C#CC#C[C@H]3C[C@@H]3CO)cn2C1=O)(C(=O)NO)S(C)(=O)=O", "note": "[RE2, (R)—N-hydroxy-4-(6-(((1S,2S)-2-(hydroxymethyl)cyclopropyl)buta-1,3-diyn-1-yl)-3-oxo-1H-pyrrolo[1,2-c]imidazol-2(3H)-yl)-2-methyl-2-(methylsulfonyl)butanamide]", "values": [{"measurement": "MIC", "setting": "[2]", "value": 0.25, "unit": "µg/mL"}, {"measurement": "MIC", "setting": "[3]", "value": 0.25, "unit": "µg/mL"}, {"measurement": "MIC", "setting": "[4]", "value": 0.25, "unit": "µg/mL"}, {"measurement": "MIC", "setting": "[5]", "value": 0.125, "unit": "µg/mL"}]}
{"compound": "C[C@@](CCN1Cc2cc(C#CC#C[C@H]3C[C@]3(F)CO)cn2C1=O)(C(=O)NO)S(C)(=O)=O", "note": "[RE3, (R)-4-(6-(((1R,2R)-2-fluoro-2-(hydroxymethyl)cyclopropyl)buta-1,3-diyn-1-yl)-3-oxo-1H-pyrrolo[1,2-c]imidazol-2(3H)-yl)-N-hydroxy-2-methyl-2-(methylsulfonyl)butanamide]", "values": [{"measurement": "MIC", "setting": "[2]", "value": 0.5, "unit": "µg/mL"}, {"measurement": "MIC", "setting": "[3]", "value": 0.25, "unit": "µg/mL"}, {"measurement": "MIC", "setting": "[4]", "value": 0.5, "unit": "µg/mL"}, {"measurement": "MIC", "setting": "[5]", "value": 0.25, "unit": "µg/mL"}]}
{"compound": "(R)-(1-((2-(4-(hydroxyamino)-3-methyl-3-(methylsulfonyl)-4-oxobutyl)-3-oxo-2,3-dihydro-1H-pyrrolo[1,2-c]imidazol-6-yl)buta-1,3-diyn-1-yl)cyclopropyl)methyl hydrogen sulfate [Example 8]", "values": [{"measurement": "MIC for E. coli A-1261 In the absence of alkaline phosphatase or esterase", "setting": "[1]; absence of alkaline phosphatase or esterase", "value": 2, "unit": "µg/mL"}, {"measurement": "MIC for E. coli A-1261 In the presence of an alkaline phosphatase (2 i.U./mL)", "setting": "[1]; alkaline phosphatase 2 i.U./mL", "value": 2, "unit": "µg/mL"}, {"measurement": "MIC for E. coli A-1261 In the presence of an esterase (10 i.U./mL)", "setting": "[1]; esterase 10 i.U./mL", "value": 2, "unit": "µg/mL"}]}
